Where two headings read alike, the source gives them in different places.
Columns and labels:
Format in all cases: cell-based
[1] = tested on: HeLa; assay: Cancer activity screen (MTT cell survival), HeLa; details: Homo sapiens
[2] = tested on: MDA-MB-231; assay: Cancer activity screen (MTT cell survival), MDA-MB-231; details: Homo sapiens
[3] = tested on: MCF-10A; assay: Cancer activity screen (MTT cell survival), MCF-10A; details: Homo sapiens
[4] = tested on: MEF (C57BL/6); assay: Cell survival, MEF; details: Mus musculus, read-out: IC50/μM MEF (C57BL/6)
[5] = tested on: MCF-7; assay: Cancer activity screen (MTT cell survival), MCF-7; details: Homo sapiens, MCF7
[6] = tested on: MDA-MB-231 cells; assay: Combination cell viability by MTT, MDA-MB-231; details: for combination index CI50 / combination index CI75 / combination index CI90 / combination index CI95: 24 hrs
Protocol: To further test if an Hsp70 inhibitor would have synergistic activity with inhibitors of Hsp90 and the proteasome, MDA-MB-231 cells were treated for 24 hrs with combinations of an HSP70 inhibitor and an HSP90 inhibitor and measured cell viability by MTT assays. […] JG98 was also synergistic at ratios of JG98:17DMAG of 1:1 and at ratios of JG98:bortezomib at 100:1.

Compound	IC50 [1]	IC50 [2]	IC50 [5]	IC50 ([2]; second table)	IC50 ([4]; second table)	other results
CCn1c(=O)/c(=C2\Sc3ccccc3N2C)s/c1=C\c1cccc[n+]1Cc1ccccc1	3.29 ± 0.36 µM	1.02 ± 0.2 µM	1.49 ± 0.22 µM			IC50 [3]: 1.46 ± 0.15 µM; IC50 [4]: 14.6 ± 1.17 µM
CCn1c(=O)/c(=C2\Sc3ccccc3N2C)s/c1=C\c1cccc[n+]1Cc1ccc(F)c(F)c1	12.3 ± 1.21 µM	4.4 ± 0.39 µM	9.6 ± 2.98 µM			IC50 [3]: 3.06 ± 0.38 µM
CCn1c(=O)/c(=C2\Sc3c(cccc3C(F)(F)F)N2C)s/c1=C\c1cccc[n+]1Cc1ccc(F)c(F)c1	8.47 ± 0.89 µM	6.16 ± 1.33 µM	5.35 ± 1.54 µM			IC50 [3]: 4.77 ± 0.48 µM
CCn1c(=O)/c(=C2\Sc3c(cccc3C(F)(F)F)N2C)s/c1=C\c1cccc[n+]1Cc1ccccc1	21.1 ± 3.96 µM	3.46 ± 0.39 µM	2.31 ± 0.43 µM			IC50 [3]: 2.45 ± 0.26 µM
CCn1c(=O)/c(=C2\Sc3ccc(OC)cc3N2C)s/c1=C\c1cccc[n+]1Cc1ccccc1	3.63 ± 0.32 µM	1.43 ± 0.19 µM	1.6 ± 0.36 µM			IC50 [3]: 1.74 ± 0.19 µM
CCn1c(=O)/c(=C2\Sc3cccc(Cl)c3N2C)s/c1=C\c1cccc[n+]1Cc1ccccc1	3.7 ± 0.35 µM	0.72 ± 0.18 µM	1.37 ± 0.27 µM			IC50 [3]: 0.61 ± 0.09 µM; IC50 [4]: 6.46 ± 0.7 µM
CN1/C(=c2\s/c(=C\c3cccc[n+]3Cc3ccccc3)n(Cc3ccccc3)c2=O)Sc2ccccc21	5.89 ± 0.87 µM	1.8 ± 0.34 µM	2.15 ± 0.68 µM			IC50 [3]: 1.34 ± 0.16 µM
CCn1c(=O)/c(=C2\Sc3c(ccc(F)c3F)N2C)s/c1=C\c1cccc[n+]1Cc1ccccc1	6 ± 0.64 µM	2.64 ± 0.35 µM	2.1 ± 0.43 µM			IC50 [3]: 1.36 ± 0.16 µM
CN1/C(=c2\s/c(=C\c3cc(Cl)cc[n+]3C)n(Cc3ccccc3)c2=O)Sc2ccccc21		2.83 ± 0.26 µM	2.81 ± 1.01 µM			IC50 [3]: 1.12 ± 0.04 µM
CCn1c(=O)/c(=C2\Sc3ccccc3N2C)s/c1=C\c1ccc(F)c[n+]1C	15 ± 0.98 µM	7.82 ± 0.78 µM	> 30 µM			IC50 [3]: 5.34 ± 0.26 µM
CCn1c(=O)/c(=C2\Sc3cccc(F)c3N2C)s/c1=C\c1cccc[n+]1Cc1ccc(CNC(=O)OC(C)(C)C)cc1	7.6 ± 0.99 µM	1.99 ± 0.33 µM	1.39 ± 0.24 µM			
CCn1c(=O)/c(=C2\Sc3ccc(Cl)cc3N2C)s/c1=C\c1scc[n+]1Cc1ccccc1	4.32 ± 0.43 µM	0.62 ± 0.1 µM	0.83 ± 0.23 µM			
CCn1c(=O)/c(=C2\Sc3cc(Cl)ccc3N2C)s/c1=C\c1scc[n+]1Cc1ccccc1	0.83 ± 0.2 µM	0.39 ± 0.03 µM	0.71 ± 0.22 µM			IC50 [4]: 23.9 ± 1.28 µM
CCn1c(=O)/c(=C2\Sc3c(Cl)cccc3N2C)s/c1=C\c1scc[n+]1Cc1ccccc1	3.93 ± 0.51 µM	0.55 ± 0.05 µM	1.05 ± 0.79 µM			IC50 [4]: > 30 µM
CCN1C(=O)/C(=C2\Sc3ccccc3N2C)S/C1=N\c1ccccc1				> 30 µM	> 50 µM	
C=CCn1c(=O)/c(=C2\Sc3c(F)cccc3N2C)s/c1=C\c1ccncc1				3.07 ± 0.73 µM	> 50 µM	
CCN1C(=O)/C(=C2\Sc3cc(C(F)(F)F)ccc3N2C)S/C1=N\c1ccccc1				16.2 ± 1.12 µM	> 50 µM	
COC(=O)Cn1c(=O)/c(=C2\Sc3ccccc3N2C)s/c1=C\c1ccccn1					> 50 µM	
CCN1C(=O)/C(=C2\Sc3cc(F)ccc3N2C)S/C1=N\c1ccccc1				> 30 µM	> 50 µM	
CCN1C(=O)/C(=C2\Sc3c(F)cccc3N2C)S/C1=N\c1ccccc1				17.7 ± 2.85 µM	> 50 µM	
CCN1C(=O)/C(=C2\Sc3cccc(F)c3N2C)S/C1=N\c1ccccc1				> 30 µM	> 50 µM	

Compound	IC50 [1]	IC50 [2]	IC50 [5]	IC50 ([2]; second table)	IC50 ([4]; second table)	other results
CCn1c(=O)/c(=C2\Sc3cc(OC(F)(F)F)ccc3N2C)s/c1=C\c1ccccn1				4.4 ± 0.5 µM	> 50 µM	
CCn1c(=O)/c(=C2\Sc3cc(Cl)ccc3N2C)s/c1=C\c1ccc(C#N)c[n+]1Cc1ccccc1				1.92 ± 0.16 µM	> 50 µM	
CCn1c(=O)/c(=C2\Sc3ccccc3N2C)s/c1=C\c1cc[n+](C)cc1				3.01 ± 0.26 µM	> 50 µM	
COC(=O)Cn1c(=O)/c(=C2\Sc3ccccc3N2C)s/c1=C\c1nccs1				> 30 µM	> 50 µM	
COC(=O)Cn1c(=O)/c(=C2\Sc3ccccc3N2C)s/c1=C\c1cccc[n+]1C				16.5 ± 1.05 µM	> 50 µM	
COC(=O)Cn1c(=O)/c(=C2\Sc3ccccc3N2C)s/c1=C\c1scc[n+]1Cc1ccccc1				0.87 ± 0.14 µM	> 50 µM	
COC(=O)Cn1c(=O)/c(=C2\Sc3cc(C(F)(F)F)ccc3N2C)s/c1=C\c1ccccn1				> 30 µM	> 50 µM	
COC(=O)Cn1c(=O)/c(=C2\Sc3cc(C(F)(F)F)ccc3N2C)s/c1=C\c1nccs1				> 30 µM	> 50 µM	
CCn1c(=O)/c(=C2\Sc3ccccc3N2C)s/c1=C\c1scc[n+]1CC				2.2 ± 0.2 µM	> 30 µM	IC50 ([5]; second table): 0.8 ± 0.1 µM
CCn1c(=O)/c(=C2\Sc3ccccc3N2C)s/c1=C\c1scc[n+]1Cc1ccccc1				0.5 ± 0.1 µM	6.8 ± 0.4 µM	IC50 ([5]; second table): 0.6 ± 0.04 µM
CCn1c(=O)/c(=C2\Sc3cc(F)ccc3N2C)s/c1=C\c1cccc[n+]1CC				8.3 ± 1.1 µM	> 30 µM	IC50 ([5]; second table): 0.9 ± 0.3 µM
CCn1c(=O)/c(=C2\Sc3c(F)cccc3N2C)s/c1=C\c1cccc[n+]1CC				2.8 ± 0.2 µM	27.1 ± 3 µM	IC50 ([5]; second table): 0.8 ± 0.1 µM
CCn1c(=O)/c(=C2\Sc3cccc(F)c3N2C)s/c1=C\c1cccc[n+]1CC				3.8 ± 0.2 µM	> 30 µM	IC50 ([5]; second table): 1 ± 0.3 µM
CCn1c(=O)/c(=C2\Sc3ccc(F)cc3N2C)s/c1=C\c1cccc[n+]1CC				13.3 ± 0.7 µM	> 30 µM	IC50 ([5]; second table): 2.4 ± 0.6 µM
CCn1c(=O)/c(=C2\Sc3cc(OC(F)(F)F)ccc3N2C)s/c1=C\c1scc[n+]1Cc1ccccc1				0.8 ± 0.1 µM	1.2 ± 0.1 µM	IC50 ([5]; second table): 0.4 ± 0.04 µM
COC(=O)CCn1c(=O)/c(=C2\Sc3cc(Cl)ccc3N2C)s/c1=C\c1scc[n+]1Cc1ccccc1				0.24 ± 0.03 µM		
COC(=O)CCn1c(=O)/c(=C2\Sc3cc(F)ccc3N2C)s/c1=C\c1ccccn1				9 ± 1.7 µM		
CCn1c(=O)/c(=C2\Sc3cc(Cl)ccc3N2C)s/c1=C\c1scc[n+]1Cc1ccccc1.[Cl-] [JG-98]						synergy ([6]; JG98:17DMAG 1:1): synergistic; combination index CI50 ([6]; JG98:17DMAG (10:1)): 1.09; combination index CI75 ([6]; JG98:17DMAG (10:1)): 0.35; combination index CI90 ([6]; JG98:17DMAG (10:1)): 0.27; combination index CI95 ([6]; JG98:17DMAG (10:1)): 0.2; synergy ([6]; JG98:bortezomib 100:1): synergistic; combination index CI50 ([6]; JG98:bortezomib (1:1)): 0.05; combination index CI75 ([6]; JG98:bortezomib (1:1)): 0.05; combination index CI90 ([6]; JG98:bortezomib (1:1)): < 0.02; combination index CI95 ([6]; JG98:bortezomib (1:1)): < 0.02
CCn1c(=O)/c(=C2\Sc3cccc(F)c3N2C)s/c1=C\c1scc[n+]1Cc1ccccc1 [drawing 56]	2.23 ± 0.28 µM	0.4 ± 0.03 µM	0.96 ± 0.2 µM			IC50 [3]: 1.07 ± 0.05 µM; IC50 [4]: 8.29 ± 0.66 µM
CCn1c(=O)/c(=C2\Sc3cccc(Cl)c3N2C)s/c1=C\c1scc[n+]1Cc1ccccc1 [drawing 57]	1.87 ± 0.23 µM	0.41 ± 0.02 µM	0.83 ± 0.19 µM			IC50 [3]: 1.14 ± 0.15 µM; IC50 [4]: 6.96 ± 0.63 µM

Reference: patent publication US9808448B2, “Pharmaceutical compounds and use of same in cancer and tauopathies” (THE REGENTS OF THE UNIVERSITY OF MICHIGAN, priority 2013, dated 2017)
